Counter-ions that a name gives are not always drawn. Like-named read-outs stand apart in the source and are kept apart here.
What was measured:
Format in all cases: cell-based
[1] = test system: strain NF54 of P. falciparum; assay: 3H-hypoxanthine incorporation growth inhibition assay, P. falciparum NF54
Procedure: The biological activity of compounds of formula (I) according to the invention has been tested on the basis of an IC50 evaluation against the strain NF54 of P. falciparum.
For Hypoxanthine assay, parasite cultures were grown in 100 mm petri-dishes in growth media having 5% haematocrit in tri-gas incubator (Cat #3131, Thermo Scientific Forma Series II Water Jacketed CO2 incubator, sold by Thermofisher) having controlled gas mixtures of 4% CO2 and 3% O2 at temperature 37° C.
Parasite growth and morphology was observed daily using thin smears at 100× (oil immersion) magnification following staining with Giemsa stain.
Parasites use hypoxanthine included in the growth media as a precursor in nucleic acid synthesis. Accordingly, by replacing hypoxanthine in the media by a radioactive hypoxanthine, such as ^3H-hypoxanthine as indicated here-under, the rate of DNA replication and growth rate of the parasites can be measured, in particular in the presence of the tested compounds of the invention.
The growth media used for the above-indicated parasites contains 1 L of RPMI-1640 (sold by Invitrogen), […] of Albumax II (sold by Invitrogen), 5 mg of Hypoxanthine (sold by Sigma), 25 mM Hepes (sold by Invitrogen) and 2.5 mg of Gentamycin (sold by Sigma).
The screening media used contains 1 L of RPMI-1640 (sold by Invitrogen), […] of Albumax II (sold by Invitrogen), 25 mM Hepes (sold by Invitrogen) and 2.5 mg of Gentamycin (sold by Sigma).
For this assay, the above described screening media was used, as well as 20 Ci/mmol of a radioactive hypoxanthine (the ligand ^3H-hypoxanthine (20 Ci/mmol, 1 mCi/mL) sold by the American Radiolabeled Chemicals (ARC) from St Louis, Mo.), some Top Seal A (sold by Perkin Elmer), 96 Well Cell Culture plates (CellStar® sold by Greiner Bio-One GmbH), MicroScint® 20 (sold by Perkin Elmer) and GFB plates (sold by Perkin Elmer).
On each 96 well plate, 3 compounds of formula (I) according to the invention as well as one standard compound (positive control) are each tested in 12 wells in duplicate.
Said standard compound is a mixture of Artesunate and Chloroquine, two well-known anti malaria compounds.
The maximum activity value of the parasites is determined as positive control by observing the parasites in the presence of erythrocytes, while the minimum activity value of the parasites is determined in a negative control by observing the erythrocytes in the absence of parasites.
The tested compounds of the invention were assayed at a final concentration of 10 μM.
In order to do so, stock solutions at a concentration of […] of compound to be tested are made available in high recovery vials at a concentration of 10 mM. From this, a 20 μM stock in Screening media is prepared ([…] of 10 mM compound+996 μl of screening media) to keep % DMSO at 0.4.
Starting from 20 μM stock solution, 100 μl is added in the assay plate already containing 100 μl of screening media and 1:2 fold serial 12 point dilutions are made in the plate (10 μM to 4.8 nM) (100 μl of compound is mixed with 100 μl of screening media already present in plates, and so on).
P. falciparum culture diluted to 0.3% p and 1.25% h—synchronous ring stage. The assay was carried out in sterile, in the 96-well plate.
100 μL of P. falciparum culture was added per well and were then incubated at 37° C. for 48 hours. Smears are then made to check for growth of culture control after 48 hours of incubation.
Once ensured that the culture has grown in % p, 50 μL of 3H-Hypoxanthine (0.5 μCi/well) is added in each well, and the assay plate is further incubated for 24 hours.
After 72 hours, the assay plates are harvested on GFB plates. In order to remove nonspecific binding, the plates are washed with 2.5 ml of cooled distilled water and GFB plates were kept for drying at 37° C. over night or 60° C. for 1 hour.
50 μL of Microscint®-20 was added to each well.
The plates are then read in Top Count (45 sec/well).
The assay data were analysed using Graph pad prism ver.5 software. […]

[2] = test system: P. falciparum clinical field isolates; assay: Ex vivo drug susceptibility assay (schizont maturation, flow cytometry) on P. falciparum clinical field isolates; conditions: Plasmodium falciparum, isolates from Timika (Papua, Indonesia), 35-56 hours
Procedure: Plasmodium isolates were collected from patients attending malaria clinics in Timika (Papua, Indonesia), a region endemic for multidrug-resistant strains of P. vivax and P. falciparum. Patients with symptomatic malaria presenting to an outpatient facility were recruited into the study if singly infected with P. falciparum or P. vivax, with a parasitaemia of between […], and the majority (>60%) of parasites at ring stage of development. […]
(§1) Drug susceptibility of P. vivax and P. falciparum isolates was measured using a protocol modified from the WHO microtest (see for instance in Marfurt J. et al., Antimicrob Agents Chemother. 2011 September; 55(9):4461).
Two hundred μL of a 2% haematocrit Blood Media Mixture (BMM), consisting of RPMI 1640 medium plus 10% AB+ human serum (P. falciparum) or McCoy's 5A medium plus 20% AB+ human serum (P. vivax) was added to each well of pre-dosed drug plates containing 11 serial concentrations (2-fold dilutions) of the anti-malarials (maximum concentration shown in brackets) CQ (2,993 nM), PIP (1,029 nM), MFQ (338 nM), AS (49 nM), and compound 1b (237 nM). […] Incubation was stopped when >40% of ring stage parasites had reached the mature schizont stage in the drug-free control wells as determined by light microscopy. […]

[3] = test system: P. vivax clinical field isolates; assay: Ex vivo drug susceptibility assay (schizont maturation, flow cytometry) on P. vivax clinical field isolates; conditions: for Drug susceptibility difference between species: P. falciparum versus P. vivax clinical field isolates
Text: The biological activity of compound 1b according to the invention has been tested on the basis of an IC50 evaluation against the strain P. vivax.
Plasmodium isolates were collected from patients attending malaria clinics in Timika (Papua, Indonesia), a region endemic for multidrug-resistant strains of P. vivax and P. falciparum. Patients with symptomatic malaria presenting to an outpatient facility were recruited into the study if singly infected with P. falciparum or P. vivax, with a parasitaemia of between […], and the majority (>60%) of parasites at ring stage of development. Venous blood (5 mL) was collected by venepuncture and after removal of host white blood cells by using Plasmodipur filters (EuroProxima B.V., The Netherlands), packed infected red blood cells (iRBCs) were used for the ex vivo drug susceptibility assay.
Standard anti-malarial drugs chloroquine (CQ), piperaquine (PIP), mefloquine (MFQ), and artesunate (AS) (WWARN QA/QC Reference Material Program), and experimental compound 1b were prepared as 1 mg/mL stock solutions in H2O or dimethyl sulfoxide (DMSO) according to the manufacturers' instructions. Drug plates were pre-dosed by diluting the compounds in 50% Methanol followed by lyophilisation and stored at 4° C.
as §1
Two hundred μL of a 2% haematocrit Blood Media Mixture (BMM), consisting of RPMI 1640 medium plus 10% AB+ human serum (P. falciparum) or McCoy's 5A medium plus 20% AB+ human serum (P. vivax) was added to each well of pre-dosed drug plates containing 11 serial concentrations (2-fold dilutions) of the anti-malarials (maximum concentration shown in brackets) CQ (2,993 nM), PIP (1,029 nM), MFQ (338 nM), AS (49 nM), and compound 1b (237 nM). A candle jar was used to mature the parasites at 37° C. for 35-56 hours. Incubation was stopped when >40% of ring stage parasites had reached the mature schizont stage in the drug-free control wells as determined by light microscopy.
Parasite growth was quantified by nucleic acid staining and data acquisition using flow cytometry as described in detail elsewhere6. Parasite growth was quantified for each drug concentration and normalised to the control well.
The dose-response data were analysed using nonlinear regression analysis and the half-maximal inhibition of growth (IC50) value derived using an inhibitory sigmoid Emax model (In Vitro Analysis and Reporting Tool; IVART7).
Drug plate quality was assured by running schizont maturation assays with the chloroquine-resistant strain K1 and the chloroquine-sensitive strain FC27.

[4] = Plasmodium falciparum, NF54, upper bound as printed, 72 hours, 3H-hypoxanthine incorporation, read-out: NF54 IC50
[5] = measured values printed under the bound, 72 hours, 3H-hypoxanthine incorporation, read-out: NF54 IC50 (nM), measured values

SMILES	IC50 [1, 4]	Drug susceptibility difference between species [3]	further results
N=C(N)NC(=O)c1cc(C#Cc2ccc(C(F)(F)F)c(C(=O)Nc3ccccn3)c2)cc(C(F)(F)F)c1 [Compound 1a, 5-((3-(carbamimidoylcarbamoyl)-5-(trifluoromethyl)phenyl)ethynyl)-N-(pyridin-2-yl)-2-(trifluoromethyl)benzamide]	< 10 nM		IC50 [1, 5]: 7 nM
Cl.N=C(N)NC(=O)c1cc(C#Cc2ccc(C(F)(F)F)c(C(=O)Nc3ccccn3)c2)cc(C(F)(F)F)c1 [Compound 1b, 5-((3-(carbamimidoylcarbamoyl)-5-(trifluoromethyl)phenyl)ethynyl)-N-(pyridin-2-yl)-2-(trifluoromethyl)benzamide hydrochloride]		did not differ significantly	IC50 ([1]; upper bound, 72 hours, 3H-hypoxanthine incorporation, hydrochloride, read-out: NF54 IC50): < 15 nM; IC50 [2]: 18.9 nM; IC50 ([3]; Plasmodium vivax, ex vivo, isolates from Timika (Papua, Indonesia), 35-56 hours): 12 nM
N=C(N)NC(=O)c1cc(C#Cc2ccc(C(F)(F)F)c(C(=O)Nc3ccccn3)c2)cc(C(F)(F)F)c1 [Compound 1c, 5-((3-(carbamimidoylcarbamoyl)-5-(trifluoromethyl)phenyl)ethynyl)-N-(pyridin-2-yl)-2-(trifluoromethyl)benzamide malonic acid]			IC50 [1, 5]: 17 nM; IC50 ([1]; upper bound, 72 hours, 3H-hypoxanthine incorporation, read-out: NF54 IC50): < 20 nM
Cc1cccc(NC(=O)c2cc(C#Cc3cc(C(=O)NC(=N)N)cc(C(F)(F)F)c3)ccc2C)n1 [Compound 2, 5-((3-((diaminomethylene)carbamoyl)-5-(trifluoromethyl)phenyl)ethynyl)-2-methyl-N-(6-methylpyridin-2-yl)benzamide hydrochloride]			IC50 ([1]; Plasmodium falciparum, NF54, read-out: NF54 IC50 (nM)): < 25 nM
Cc1cccc(NC(=O)c2cc(C#Cc3cc(F)cc(C(=O)NC(=N)N)c3)ccc2C(F)(F)F)n1 [Compound 3, 5-((3-(carbamimidoylcarbamoyl)-5-fluorophenyl)ethynyl)-N-(6-methylpyridin-2-yl)-2-(trifluoromethyl)benzamide hydrochloride]	< 25 nM		
Cc1ccc(C#Cc2cc(C(=O)NC(=N)N)cc(C(F)(F)F)c2)cc1C(=O)Nc1ccccn1 [Compound 4, 5-((3-(carbamimidoylcarbamoyl)-5-trifluoromethyl)phenyl)ethynyl)-2-methyl-N-(pyridin-2-yl)benzamide hydrochloride]	< 10 nM		
N=C(N)NC(=O)c1cc(C#Cc2ccc(C(F)(F)F)c(C(=O)Nc3ccc(O)cn3)c2)cc(C(F)(F)F)c1 [Compound 5, 5-((3-(carbamimidoylcarbamoyl)-5-(trifluoromethyl)phenyl)ethynyl)-N-(5-hydroxypyridin-2-yl)-2-(trifluoromethyl)benzamide hydrochloride]	< 10 nM		
N=C(N)NC(=O)c1cc(C#Cc2ccc(Cl)c(C(=O)Nc3ccccn3)c2)cc(C(F)(F)F)c1 [Compound 6, 5-((3-(carbamimidoylcarbamoyl)-5-(trifluoromethyl)phenyl)ethynyl)-2-chloro-N-(pyridin-2-yl)benzamide hydrochloride]	< 10 nM		
N=C(N)NC(=O)c1cc(F)cc(C#Cc2ccc(C(F)(F)F)c(C(=O)Nc3ccccn3)c2)c1 [Compound 7, 5-((3-(carbamimidoylcarbamoyl)-5-fluorophenyl)ethynyl)-N-(pyridin-2-yl)-2-(trifluoromethyl)benzamide hydrochloride]	< 20 nM		
N=C(N)NC(=O)c1cc(C#Cc2ccc(C(F)(F)F)c(C(N)=O)c2)cc(C(F)(F)F)c1 [Compound 8]	< 100 nM		
C[C@H]1[C@H](OC(=O)CCC(=O)O)O[C@@H]2O[C@@]3(C)CC[C@H]4[C@H](C)CC[C@@H]1[C@@]24OO3 [artesunate]		did not differ significantly	
OC(c1cc(C(F)(F)F)nc2c(C(F)(F)F)cccc12)C1CCCCN1 (stereo not drawn) [mefloquine]		did not differ significantly	
Clc1ccc2c(N3CCN(CCCN4CCN(c5ccnc6cc(Cl)ccc56)CC4)CC3)ccnc2c1 [piperaquine]		did not differ significantly	

From US11078160B2, “Ethynyl compounds, their preparation and their therapeutic use for the treatment of malaria” (SANOFI, priority 2017, dated 2021)
